Assay: Net charge vs pH of the payload molecule
Type: physicochemical
Description: Step 2: This is an essential step. For short payload molecules with a single ionizable group is enough to know pKa, so the useful pH range is pH>pKa+1 for acidic compounds and pH<pKa−1 for basic compounds. For payloads that are macromolecules with multiple different ionizable groups, such as peptides and proteins, must be measured or calculated net charge vs pH dependence for the full pH range (0-14). Provided three examples, refer to FIGS. 1 to 3.
For the vancomycin example, there are two ranges of pH where it is ionized (FIG. 1), one is pH 1 and below and the second range is pH 8 and up. Vancomycin at pH ˜1 acquires net charge +1, however at pH 12, the net charge is −4.5. Therefore, vancomycin must be encapsulated at pH 12 by the disclosed method as a “negatively charged payload”. Note, in the range of pH from 3 to 7.5 it is impossible to encapsulate vancomycin because it has no charge.
Both Cas9 and Cas13 endonucleases have to be encapsulated at pH<4 as “positively charged payloads”.

## CN[C@H](CC(C)C)C(=O)N[C@H]1C(=O)N[C@@H](CC(N)=O)C(=O)N[C@H]2C(=O)N[C@H]3C(=O)N[C@H](C(=O)N[C@H](C(=O)O)c4cc(O)cc(O)c4-c4cc3ccc4O)[C@H](O)c3ccc(c(Cl)c3)Oc3cc2cc(c3O[C@@H]2O[C@H](CO)[C@@H](O)[C@H](O)[C@H]2O[C@H]2C[C@](C)(N)[C@H](O)[C@H](C)O2)Oc2ccc(cc2Cl)[C@H]1O [Vancomycin, vancomycin]
pH 12 (FIG. 1)
  net charge: −4.5
pH from 3 to 7.5 (FIG. 1)
  net charge: no charge
pH ˜1 (FIG. 1)
  net charge: +1

Reference: patent US20240226245A9, “ZIP-IN TECHNOLOGY FOR ANTIVIRAL THERAPEUTIC NANOFORMULATIONS” (PAROLE LABORATORIES INC., priority 2022, published 2024)
